The target in experiment [1] is hMT1. To be noted: read-out: Ki hMT1; competition for 2-[125I]-iodomelatonin (300 pM); cited from earlier work.
The target in experiment [2] is hMT2. As to conditions: read-out: Ki hMT2; competition for 2-[125I]-iodomelatonin (300 pM); cited from earlier work.
The target of experiment [3] is T1, hMT1 melatonin receptor (Homo sapiens, UniProt P48039). The experiment can be described thus: biochemical. In kind it is binding. To be noted: for ratio KiGTP/KiControl, human MT1: 100 μM GTP vs control; for ratio KiGTP/KiControl, human MT1 / Ki: mean ± SEM; for apparent intrinsic efficacy at hMT1 from GTP shift: classified by KiGTP/KiControl: agonists >1, antagonists =1, inverse agonists <1; for Ki: human MT1 Ki value, 25 °C, 1 h.

For experiment [4], the target named is T1, hMT1 melatonin receptor. The experiment can be described thus: biochemical. In kind it is binding.
The target in experiment [5] is T2, hMT2 melatonin receptor (Homo sapiens, UniProt P49286).
T2 sequence (P49286 1-362): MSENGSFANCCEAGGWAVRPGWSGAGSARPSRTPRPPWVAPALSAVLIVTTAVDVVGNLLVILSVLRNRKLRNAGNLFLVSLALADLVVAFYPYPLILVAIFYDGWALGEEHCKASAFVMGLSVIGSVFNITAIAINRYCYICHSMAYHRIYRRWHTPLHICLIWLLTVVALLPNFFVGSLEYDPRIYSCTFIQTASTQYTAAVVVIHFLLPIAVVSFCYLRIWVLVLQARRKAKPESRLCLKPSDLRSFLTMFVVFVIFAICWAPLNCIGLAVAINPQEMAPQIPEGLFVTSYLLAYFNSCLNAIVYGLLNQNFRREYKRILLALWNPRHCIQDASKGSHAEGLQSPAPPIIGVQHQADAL
Description: biochemical. In kind it is binding. As to conditions: for fold higher affinity for hMT2 than for hMT1: competition with 2-[125I]-iodomelatonin binding; for ratio MT1/MT2 (KiMT1/KiMT2): fold difference in affinity between hMT1 and hMT2.

Experiment [6] deals with T2, hMT2 melatonin receptor. Description: biochemical. In kind it is binding. To be noted: for ratio KiGTP/KiControl, human MT2: 100 μM GTP vs control; for ratio KiGTP/KiControl, human MT2 / Ki: mean ± SEM; for apparent intrinsic efficacy at hMT2 from GTP shift: classified by KiGTP/KiControl: agonists >1, antagonists =1, inverse agonists <1; for Ki: human MT2 Ki value, 25 °C, 1 h.

Experiment [7] deals with serotonin levels. As to conditions: single oral dose 60 mg/kg; cited from earlier work.

SMILES strings stand for the structures. Where two headings read alike, the source gives them in different places.

T1 sequence (P48039 whole entry): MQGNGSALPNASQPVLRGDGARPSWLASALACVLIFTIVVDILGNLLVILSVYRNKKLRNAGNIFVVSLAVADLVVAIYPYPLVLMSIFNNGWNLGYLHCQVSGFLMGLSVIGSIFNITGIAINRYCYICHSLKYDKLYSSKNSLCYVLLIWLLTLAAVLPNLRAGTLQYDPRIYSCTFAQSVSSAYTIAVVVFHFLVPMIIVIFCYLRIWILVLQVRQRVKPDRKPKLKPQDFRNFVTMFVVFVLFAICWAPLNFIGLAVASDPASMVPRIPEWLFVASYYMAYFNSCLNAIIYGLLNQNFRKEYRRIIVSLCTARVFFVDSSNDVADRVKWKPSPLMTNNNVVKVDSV

Regarding `CCC(=O)NC1Cc2ccccc2C(c2ccccc2)C1` (centres unmarked) [4P-PDOT], the Ki – broadly, the dissociation constant of the complex between target and ligand, obtained from inhibition or displacement – was 0.658 µM in experiment [1] and 0.00041 µM in experiment [2].
As for `CNC(=O)Oc1cccc2ccccc12` [carbaryl, 1-naphthyl methylcarbamate], the “ratio KiGTP/KiControl, human MT1” value in experiment [3] was 0.65 ± 0.16. Besides, in experiment [3], the “apparent intrinsic efficacy at hMT1 from GTP shift” value is “antagonist/inverse agonist”. Also, the Ki in experiment [3] (GTP, presence of 100 μM GTP) turned out to be 1.21 ± 0.11 µM; in experiment [3] (control, absence of GTP), 2.33 ± 0.53 µM; in experiment [4] (affinity at hMT1, text of discussion, equals the Table 2 control value) it was 2.33 µM; in experiment [5], 0.07 ± 0.01 µM; in experiment [6] (GTP, presence of 100 μM GTP) it was 0.31 ± 0.03 µM; in experiment [6] (control, absence of GTP), 0.07 ± 0.005 µM. Besides, the “fold higher affinity for hMT2 than for hMT1” value in experiment [5] worked out at 33 fold. In experiment [5], the “ratio MT1/MT2 (KiMT1/KiMT2)” value turned out to be 32.4. Further, the “ratio KiGTP/KiControl, human MT2” value in experiment [6] came out at 4.82 ± 0.82. Also, the “apparent intrinsic efficacy at hMT2 from GTP shift” value in experiment [6] is “agonist”. The levels of serotonin entry in experiment [7] is on record as “increased”.
For `CNC(=O)Oc1cccc2c1OC(C)(C)C2` [carbofuran, 2,3-dihydro-2,2-dimethyl-7-benzofuranyl methylcarbamate], the “ratio KiGTP/KiControl, human MT1” value in experiment [3] turned out to be 0.59 ± 0.24. Moreover, the “apparent intrinsic efficacy at hMT1 from GTP shift” value in experiment [3] is given as “antagonist/inverse agonist”. For the same molecule, the inhibition constant (Ki) in experiment [3] (GTP, presence of 100 μM GTP) was found to be 29.9 ± 8.6 µM; in experiment [3] (control, absence of GTP), 63.5 ± 12.5 µM; in experiment [4], 58.5 ± 8.25 µM; in experiment [5], 1.68 ± 0.24 µM; in experiment [6] (GTP, presence of 100 μM GTP), 12.1 ± 2.63 µM; in experiment [6] (control, absence of GTP) it was 1.67 ± 0.39 µM. For the same molecule, the “fold higher affinity for hMT2 than for hMT1” value in experiment [5] is 35 fold. In addition, in experiment [5], the “ratio MT1/MT2 (KiMT1/KiMT2)” value is reported as 34.8. In experiment [6], the “ratio KiGTP/KiControl, human MT2” value turned out to be 10.8 ± 4.2. In experiment [6], the “apparent intrinsic efficacy at hMT2 from GTP shift” value is “agonist efficacy”.
On to `CC(=O)NCCc1c(Cc2ccccc2)[nH]c2ccccc12` [luzindole], for which the Ki is 0.179 µM in experiment [1] and 0.0073 µM in experiment [2].

(Values after article PMC5318275 (Chemical research in toxicology, 2017).)
